Here are results for one molecule from article PMC2697668 (Organic letters, 2009).

In this experiment the target is recombinant yeast Hsp90. Nature of the experiment: ATPase inhibition assay. The format is biochemical, Saccharomyces cerevisiae. The following applies: read-out: ATPase; incubated with ATP.

Molecules are shown by their SMILES.

As for `C[C@@H]1C[C@H]2O[C@@H]2/C=C\C=C\C(=O)Cc2c(Cl)c(O)cc(O)c2C(=O)O1` [RDC], the IC50 was 400 nM.
